Measurements taken from the supplement of paper PMC10627819.

Legend:
B. subtilis 168 [1] = test: fitness (endpoint OD595 vs no drug) (fraction); higher = more growth
Procedure, shortened: (§1)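 Fitness expresses the optical density reached at the stationary-phase transition as a fraction of the robust mean of no-drug control wells. It is capped at 1. Measurements were OD595 every 30 min for 14 h at 37 °C after inoculation of 384-well plates at OD595 0.01 (30 µl, or 55 µl for S. pneumoniae), minus the first reading.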

S. aureus Newman [2] = test: as above
Procedure, shortened: as §1

S. pneumoniae D39V [3] = test: as above
Procedure, shortened: as §1

B. subtilis 168 [4] = test: Bliss interaction score (quartile over a dose matrix) (fitness difference); higher = more antagonism (negative = synergy)
Procedure, shortened: (§2)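 Each OD595 reading at entry into stationary phase was scaled to the robust mean of the untreated wells on its plate, with a ceiling of 1. These ratios define fitness, and single-drug fitness was inferred from combinations. The Bliss score compares observed fitness with the product-based expectation and is reported as quartiles across all replicate types, technical, biological and donor/recipient.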

S. aureus DSM 20231 = test: as above
Procedure, shortened: as §2

S. aureus Newman [5] = test: as above
Procedure, shortened: as §2

S. pneumoniae D39V [6] = test: as above
Procedure, shortened: as §2
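Throughout, for Bliss interaction score (quartile over a dose matrix): first quartile when negative (synergy) and third quartile when positive (antagonism).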
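Throughout, for fitness (endpoint OD595 vs no drug): OD595 on entry to stationary phase over no-drug wells; at most 1.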

CC1=C(C(=O)O)N2C(=O)[C@@H](NC(=O)[C@H](N)c3ccccc3)[C@H]2SC1 [Cephalexin] + COc1c(N2C[C@@H]3CCCN[C@@H]3C2)c(F)cc2c(=O)c(C(=O)O)cn(C3CC3)c12 [Moxifloxacin]
Conditions | fitness
B. subtilis 168 [1], first compound 0.125 µg/mL, partner 2 µg/mL | 0.0423
B. subtilis 168 [1], first compound 0.125 µg/mL, partner 4 µg/mL | 0.0453
B. subtilis 168 [1], first compound 0.125 µg/mL, partner 8 µg/mL | 0.0194
B. subtilis 168 [1], first compound 0.25 µg/mL, partner 0.0312 µg/mL | 0.0487
B. subtilis 168 [1], first compound 0.25 µg/mL, partner 0.0625 µg/mL | 0.0549
B. subtilis 168 [1], first compound 0.25 µg/mL, partner 0.125 µg/mL | 0.0364
B. subtilis 168 [1], first compound 0.25 µg/mL, partner 2 µg/mL | 0.0473
B. subtilis 168 [1], first compound 0.25 µg/mL, partner 4 µg/mL | 0.0392
B. subtilis 168 [1], first compound 0.25 µg/mL, partner 8 µg/mL | 0.027
B. subtilis 168 [1], first compound 0.5 µg/mL, partner 0.0312 µg/mL | 0.0585
B. subtilis 168 [1], first compound 0.5 µg/mL, partner 0.0625 µg/mL | 0.0464
B. subtilis 168 [1], first compound 0.5 µg/mL, partner 0.125 µg/mL | 0.0607
B. subtilis 168 [1], first compound 0.5 µg/mL, partner 2 µg/mL | 0.0441
B. subtilis 168 [1], first compound 0.5 µg/mL, partner 4 µg/mL | 0.0483
B. subtilis 168 [1], first compound 0.5 µg/mL, partner 8 µg/mL | 0.0385
B. subtilis 168 [1], first compound 1 µg/mL, partner 0.0312 µg/mL | 0.0562
B. subtilis 168 [1], first compound 1 µg/mL, partner 0.0625 µg/mL | 0.0588
B. subtilis 168 [1], first compound 1 µg/mL, partner 0.125 µg/mL | 0.0618
S. aureus Newman [2], first compound 0.25 µg/mL, partner 0.0075 µg/mL | 0.788
S. aureus Newman [2], first compound 0.5 µg/mL, partner 0.0075 µg/mL | 0.812
S. aureus Newman [2], first compound 0.5 µg/mL, partner 0.015 µg/mL | 0.691
S. aureus Newman [2], first compound 1 µg/mL, partner 0.0075 µg/mL | 0.807
S. pneumoniae D39V [3], first compound 4 µg/mL, partner 0.005 µg/mL | 0.0502
S. pneumoniae D39V [3], first compound 4 µg/mL, partner 0.01 µg/mL | 0.059
S. pneumoniae D39V [3], first compound 4 µg/mL, partner 0.02 µg/mL | 0.0505

fitness, S. pneumoniae D39V [3], one replicate
Conditions | first compound 0.125 µg/mL | first compound 0.25 µg/mL | first compound 0.5 µg/mL
partner 0.0037 µg/mL | 0.856 | 0.855 | 0.836
partner 0.0075 µg/mL | 0.948 | 0.843 | 0.819
partner 0.015 µg/mL | 0.839 | 0.813 | 0.808

Conditions | Bliss interaction score
B. subtilis 168 [4] | 0.0149
S. aureus DSM 20231 | -0.0585
S. aureus Newman [5] | 0.07
S. pneumoniae D39V [6] | -0.0683

CNC(C)C1CCC(N)C(OC2C(N)CC(N)C(OC3OCC(C)(O)C(NC)C3O)C2O)O1 (stereo unspecified) [Gentamicin] + CN(C)c1cc(NC(=O)CNC(C)(C)C)c(O)c2c1C[C@H]1C[C@H]3[C@H](N(C)C)C(O)=C(C(N)=O)C(=O)[C@@]3(O)C(O)=C1C2=O [Tigecycline]
main component drawn
Conditions | fitness
B. subtilis 168 [1], first compound 0.0625 µg/mL, partner 0.039 µg/mL | 0.967
B. subtilis 168 [1], first compound 0.0625 µg/mL, partner 0.078 µg/mL | 0.908
B. subtilis 168 [1], first compound 0.0625 µg/mL, partner 0.156 µg/mL | 0.907
B. subtilis 168 [1], first compound 0.25 µg/mL, partner 0.039 µg/mL | 0.186
B. subtilis 168 [1], first compound 0.25 µg/mL, partner 0.078 µg/mL | 0.0549
B. subtilis 168 [1], first compound 0.25 µg/mL, partner 0.156 µg/mL | 0.0589
S. aureus Newman [2], first compound 0.5 µg/mL, partner 0.039 µg/mL | 0.974
S. aureus Newman [2], first compound 0.5 µg/mL, partner 0.078 µg/mL | 0.949
S. aureus Newman [2], first compound 0.5 µg/mL, partner 0.156 µg/mL | 0.935
S. aureus Newman [2], first compound 1 µg/mL, partner 0.039 µg/mL | 0.988
S. aureus Newman [2], first compound 1 µg/mL, partner 0.078 µg/mL | ≥ 1
S. aureus Newman [2], first compound 1 µg/mL, partner 0.156 µg/mL | ≥ 1
S. aureus Newman [2], first compound 2 µg/mL, partner 0.039 µg/mL | ≥ 1
S. aureus Newman [2], first compound 2 µg/mL, partner 0.078 µg/mL | ≥ 1
S. aureus Newman [2], first compound 2 µg/mL, partner 0.156 µg/mL | ≥ 1
S. pneumoniae D39V [3], first compound 2 µg/mL, partner 0.325 µg/mL | 0.94
S. pneumoniae D39V [3], first compound 2 µg/mL, partner 0.65 µg/mL | 0.9
S. pneumoniae D39V [3], first compound 2 µg/mL, partner 1.3 µg/mL | 0.909
S. pneumoniae D39V [3], first compound 2 µg/mL, partner 2.6 µg/mL | 0.897
S. pneumoniae D39V [3], first compound 4 µg/mL, partner 0.325 µg/mL | 0.943
S. pneumoniae D39V [3], first compound 4 µg/mL, partner 0.65 µg/mL | 0.945
S. pneumoniae D39V [3], first compound 4 µg/mL, partner 1.3 µg/mL | 0.96
S. pneumoniae D39V [3], first compound 4 µg/mL, partner 2.6 µg/mL | 0.903
S. pneumoniae D39V [3], first compound 8 µg/mL, partner 0.325 µg/mL | 0.971
S. pneumoniae D39V [3], first compound 8 µg/mL, partner 0.65 µg/mL | 0.911
S. pneumoniae D39V [3], first compound 8 µg/mL, partner 1.3 µg/mL | 0.977
S. pneumoniae D39V [3], first compound 8 µg/mL, partner 2.6 µg/mL | 0.858

fitness, one replicate, main component drawn
Conditions | first compound 0.0625 µg/mL | first compound 0.125 µg/mL | first compound 0.25 µg/mL | first compound 0.375 µg/mL | first compound 0.75 µg/mL | first compound 1.5 µg/mL
B. subtilis 168 [1], partner 0.125 µg/mL | ≥ 1 | ≥ 1 | 0.0664 | – | – | –
B. subtilis 168 [1], partner 0.25 µg/mL | 0.91 | 0.891 | 0.315 | – | – | –
B. subtilis 168 [1], partner 0.5 µg/mL | 0.965 | 0.879 | 0.21 | – | – | –
S. aureus Newman [2], partner 0.039 µg/mL | – | – | – | 0.935 | 0.933 | 0.953
S. aureus Newman [2], partner 0.078 µg/mL | – | – | – | 0.97 | ≥ 1 | 0.966
S. aureus Newman [2], partner 0.156 µg/mL | – | – | – | ≥ 1 | 0.969 | 0.964

main component drawn
Conditions | Bliss interaction score
B. subtilis 168 [4] | 0.122
S. aureus DSM 20231 | -0.0407
S. aureus Newman [5] | -0.0289
S. pneumoniae D39V [6] | 0.0631

CC1=C(C(=O)O)N2C(=O)[C@@H](NC(=O)[C@H](N)c3ccccc3)[C@H]2SC1 [Cephalexin] + CN[C@@H]1[C@H](O)[C@H](NC)[C@H]2O[C@@]3(O)C(=O)C[C@@H](C)O[C@H]3O[C@@H]2[C@H]1O [Spectinomycin]
fitness
Conditions | first compound 0.125 µg/mL | first compound 0.25 µg/mL | first compound 0.5 µg/mL | first compound 1 µg/mL
B. subtilis 168 [1], partner 2 µg/mL | ≥ 1 | 0.933 | 0.978 | –
B. subtilis 168 [1], partner 4 µg/mL | 0.981 | 0.978 | ≥ 1 | –
B. subtilis 168 [1], partner 8 µg/mL | 0.905 | 0.928 | 0.884 | –
S. aureus Newman [2], partner 4 µg/mL | – | 0.904 | 0.951 | 0.951
S. aureus Newman [2], partner 8 µg/mL | – | 0.982 | ≥ 1 | ≥ 1
S. aureus Newman [2], partner 16 µg/mL | – | 0.949 | 0.957 | ≥ 1

fitness, one replicate
Conditions | first compound 0.125 µg/mL | first compound 0.25 µg/mL | first compound 0.5 µg/mL | first compound 1 µg/mL | first compound 2 µg/mL | first compound 4 µg/mL
S. aureus Newman [2], partner 16 µg/mL | – | – | – | – | 0.969 | –
S. aureus Newman [2], partner 32 µg/mL | – | – | 0.681 | 0.713 | 0.651 | –
S. aureus Newman [2], partner 64 µg/mL | – | – | 0.127 | 0.071 | 0.1 | –
S. pneumoniae D39V [3], partner 4 µg/mL | 0.874 | 0.91 | 0.993 | 0.474 | 0.0025 | 0
S. pneumoniae D39V [3], partner 8 µg/mL | 0.892 | 0.884 | 0.908 | 0.587 | 0.0549 | 0.0577
S. pneumoniae D39V [3], partner 16 µg/mL | 0.875 | 0.82 | 0.859 | – | – | –

Conditions | Bliss interaction score
B. subtilis 168 [4] | 0.0659
S. aureus DSM 20231 | 0.0503
S. aureus Newman [5] | 0.0839
S. pneumoniae D39V [6] | 0.0578

Cc1onc(-c2ccccc2)c1C(=O)N[C@@H]1C(=O)N2[C@@H]1SC(C)(C)[C@@H]2C(=O)O [Oxacillin] + CN[C@@H]1[C@H](O[C@H]2[C@H](O[C@H]3[C@H](O)[C@@H](O)[C@H](N=C(N)N)[C@@H](O)[C@@H]3N=C(N)N)O[C@@H](C)[C@]2(O)C=O)O[C@@H](CO)[C@H](O)[C@H]1O [Streptomycin]
fitness
Conditions | partner 1 µg/mL | partner 2 µg/mL | partner 4 µg/mL | partner 8 µg/mL
B. subtilis 168 [1], first compound 0.002 µg/mL | – | 0.982 | 0.369 | 0.0333
B. subtilis 168 [1], first compound 0.004 µg/mL | – | 0.941 | 0.208 | 0.0502
B. subtilis 168 [1], first compound 0.008 µg/mL | – | 0.931 | 0.134 | 0.0492
S. aureus Newman [2], first compound 0.0156 µg/mL | 0.808 | 0.726 | – | –
S. aureus Newman [2], first compound 0.0312 µg/mL | 0.738 | 0.644 | – | –
S. aureus Newman [2], first compound 0.0625 µg/mL | 0.606 | 0.531 | – | –
S. pneumoniae D39V [3], first compound 0.01 µg/mL | – | 0.938 | 0.98 | 0.909
S. pneumoniae D39V [3], first compound 0.02 µg/mL | – | 0.88 | 0.931 | 0.908
S. pneumoniae D39V [3], first compound 0.04 µg/mL | – | 0.33 | 0.399 | 0.441

fitness, one replicate
Conditions | first compound 0.01 µg/mL | first compound 0.02 µg/mL | first compound 0.04 µg/mL | first compound 0.075 µg/mL | first compound 0.15 µg/mL | first compound 0.3 µg/mL
B. subtilis 168 [1], partner 2 µg/mL | – | – | – | 0.534 | 0.0325 | 0.0421
B. subtilis 168 [1], partner 4 µg/mL | – | – | – | 0.0966 | 0.025 | 0.0294
B. subtilis 168 [1], partner 8 µg/mL | – | – | – | 0.0343 | 0.0288 | 0.0352
S. pneumoniae D39V [3], partner 16 µg/mL | 0.887 | 0.863 | 0.436 | – | – | –

Conditions | Bliss interaction score
B. subtilis 168 [4] | -0.113
S. aureus DSM 20231 | -0.0653
S. aureus Newman [5] | -0.0537
S. pneumoniae D39V [6] | 0.093
